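A five-concentration, 48-hour dose response in 96-well plates underlies each endpoint, interpolated linearly between surrounding concentrations. Abbreviation: GI50, concentration required for 50% inhibition of growth. TGI marks complete inhibition of growth.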
test system: SK-MEL-5 melanoma; assay: DTP human tumour cell line panel, 48 h

`Cc1cc(SCC(=O)c2ccccc2)nc2ccccc12` and `Cc1cc(C)c(C(=O)CC(=O)c2cccnc2)c(C)c1` cannot be ordered by TGI: > 100 µM for the first, > 100 µM for the second.

First: CC1CN1CC(O)C(O)CN1CC1C (stereo not given)
Second: CCN(CC)c1ccc(C(=N)c2ccc(N(CC)CC)cc2)cc1
The TGI of the first is 12-fold higher: 14.8 µM for the first, 1.24 µM for the second.

First: Cc1cc(C)c(C(=O)CC(=O)c2cccnc2)c(C)c1
Second: CCN(CC)c1ccc(C(=N)c2ccc(N(CC)CC)cc2)cc1
The GI50 of the first is 22-fold higher: 7.56 µM for the first, 0.342 µM for the second.

`CC1CN1CC(O)C(O)CN1CC1C` (stereo not given) gave a GI50 of 3.3 µM.

test system: ACHN renal; assay: DTP human tumour cell line panel, 48 h

`Cc1cc(SCC(=O)c2ccccc2)nc2ccccc12` and `Cc1cc(C)c(C(=O)CC(=O)c2cccnc2)c(C)c1` cannot be ordered by TGI: > 100 µM for the first, > 100 µM for the second.

Work on `CCN(CC)c1ccc(C(=N)c2ccc(N(CC)CC)cc2)cc1` yielded a TGI of 6.43 µM.

Going from `Cc1cc(C)c(C(=O)CC(=O)c2cccnc2)c(C)c1` to `CCN(CC)c1ccc(C(=N)c2ccc(N(CC)CC)cc2)cc1`, the GI50 falls from 6.28 µM to 0.784 µM (8-fold).

Work on `CC1CN1CC(O)C(O)CN1CC1C` (stereo not given) yielded a GI50 of 0.395 µM.

test system: NCI-H226 lung; assay: DTP human tumour cell line panel, 48 h

First: Cc1cc(SCC(=O)c2ccccc2)nc2ccccc12
Second: Cc1cc(C)c(C(=O)CC(=O)c2cccnc2)c(C)c1
The TGI of the first is higher: > 100 µM for the first, 86.8 µM for the second.

First: CC1CN1CC(O)C(O)CN1CC1C (stereo not given)
Second: CCN(CC)c1ccc(C(=N)c2ccc(N(CC)CC)cc2)cc1
The TGI of the first is 19-fold higher: 50.1 µM for the first, 2.57 µM for the second.

Compared with `Cc1cc(C)c(C(=O)CC(=O)c2cccnc2)c(C)c1`, `CCN(CC)c1ccc(C(=N)c2ccc(N(CC)CC)cc2)cc1` is 11-fold lower in GI50: 7.34 µM for the first, 0.669 µM for the second.

For `CC1CN1CC(O)C(O)CN1CC1C` (stereo not given), the GI50 was 5.23 µM.

test system: A549 NSCLC; assay: DTP human tumour cell line panel, 48 h

`Cc1cc(SCC(=O)c2ccccc2)nc2ccccc12` and `Cc1cc(C)c(C(=O)CC(=O)c2cccnc2)c(C)c1` cannot be ordered by TGI: > 100 µM for the first, > 100 µM for the second.

Going from `CC1CN1CC(O)C(O)CN1CC1C` (stereo not given) to `CCN(CC)c1ccc(C(=N)c2ccc(N(CC)CC)cc2)cc1`, the TGI falls from 33 µM to 5.94 µM (5.6-fold).

Compared with `Cc1cc(C)c(C(=O)CC(=O)c2cccnc2)c(C)c1`, `CCN(CC)c1ccc(C(=N)c2ccc(N(CC)CC)cc2)cc1` is 11-fold lower in GI50: 6.97 µM for the first, 0.625 µM for the second.

`CC1CN1CC(O)C(O)CN1CC1C` (stereo not given) gave a GI50 of 2.08 µM.

test system: U251 CNS; assay: DTP human tumour cell line panel, 48 h

`Cc1cc(SCC(=O)c2ccccc2)nc2ccccc12` and `Cc1cc(C)c(C(=O)CC(=O)c2cccnc2)c(C)c1` cannot be ordered by TGI: > 100 µM for the first, > 100 µM for the second.

Going from `CC1CN1CC(O)C(O)CN1CC1C` (stereo not given) to `CCN(CC)c1ccc(C(=N)c2ccc(N(CC)CC)cc2)cc1`, the TGI falls from > 64.8 µM to 2.16 µM.

Compared with `Cc1cc(C)c(C(=O)CC(=O)c2cccnc2)c(C)c1`, `CCN(CC)c1ccc(C(=N)c2ccc(N(CC)CC)cc2)cc1` is 6.8-fold lower in GI50: 3.67 µM for the first, 0.542 µM for the second.

With `CC1CN1CC(O)C(O)CN1CC1C` (stereo not given) the GI50 was 1.36 µM.

test system: HCT-116 colon; assay: DTP human tumour cell line panel, 48 h

`Cc1cc(SCC(=O)c2ccccc2)nc2ccccc12` and `Cc1cc(C)c(C(=O)CC(=O)c2cccnc2)c(C)c1` cannot be ordered by TGI: > 100 µM for the first, > 100 µM for the second.

First: CC1CN1CC(O)C(O)CN1CC1C (stereo not given)
Second: CCN(CC)c1ccc(C(=N)c2ccc(N(CC)CC)cc2)cc1
The TGI of the first is higher: > 100 µM for the first, 1.35 µM for the second.

Compared with `Cc1cc(C)c(C(=O)CC(=O)c2cccnc2)c(C)c1`, `CCN(CC)c1ccc(C(=N)c2ccc(N(CC)CC)cc2)cc1` is 13-fold lower in GI50: 4.31 µM for the first, 0.323 µM for the second.

For `CC1CN1CC(O)C(O)CN1CC1C` (stereo not given), the GI50 was 2.29 µM.

test system: BT-549 breast; assay: DTP human tumour cell line panel, 48 h

Compared with `Cc1cc(SCC(=O)c2ccccc2)nc2ccccc12`, `Cc1cc(C)c(C(=O)CC(=O)c2cccnc2)c(C)c1` is lower in TGI: > 100 µM for the first, 33.9 µM for the second.

First: CC1CN1CC(O)C(O)CN1CC1C (stereo not given)
Second: CCN(CC)c1ccc(C(=N)c2ccc(N(CC)CC)cc2)cc1
The TGI of the first is 15-fold higher: 87.1 µM for the first, 5.78 µM for the second.

Compared with `Cc1cc(C)c(C(=O)CC(=O)c2cccnc2)c(C)c1`, `CCN(CC)c1ccc(C(=N)c2ccc(N(CC)CC)cc2)cc1` is 1.9-fold lower in GI50: 2.25 µM for the first, 1.16 µM for the second.

Work on `CC1CN1CC(O)C(O)CN1CC1C` (stereo not given) yielded a GI50 of 6.43 µM.

test system: MCF7 breast; assay: DTP human tumour cell line panel, 48 h

`Cc1cc(SCC(=O)c2ccccc2)nc2ccccc12` and `Cc1cc(C)c(C(=O)CC(=O)c2cccnc2)c(C)c1` cannot be ordered by TGI: > 100 µM for the first, > 100 µM for the second.

Going from `CC1CN1CC(O)C(O)CN1CC1C` (stereo not given) to `CCN(CC)c1ccc(C(=N)c2ccc(N(CC)CC)cc2)cc1`, the TGI falls from 36.6 µM to 1.78 µM (21-fold).

Compared with `Cc1cc(C)c(C(=O)CC(=O)c2cccnc2)c(C)c1`, `CCN(CC)c1ccc(C(=N)c2ccc(N(CC)CC)cc2)cc1` is 17-fold lower in GI50: 5.96 µM for the first, 0.349 µM for the second.

Work on `CC1CN1CC(O)C(O)CN1CC1C` (stereo not given) yielded a GI50 of 0.427 µM.

test system: SNB-19 CNS; assay: DTP human tumour cell line panel, 48 h

`Cc1cc(SCC(=O)c2ccccc2)nc2ccccc12` and `Cc1cc(C)c(C(=O)CC(=O)c2cccnc2)c(C)c1` cannot be ordered by TGI: > 100 µM for the first, > 100 µM for the second.

Compared with `CC1CN1CC(O)C(O)CN1CC1C` (stereo not given), `CCN(CC)c1ccc(C(=N)c2ccc(N(CC)CC)cc2)cc1` is lower in TGI: > 100 µM for the first, 8.09 µM for the second.

Compared with `Cc1cc(C)c(C(=O)CC(=O)c2cccnc2)c(C)c1`, `CCN(CC)c1ccc(C(=N)c2ccc(N(CC)CC)cc2)cc1` is 6.9-fold lower in GI50: 6.34 µM for the first, 0.917 µM for the second.

`CC1CN1CC(O)C(O)CN1CC1C` (stereo not given) gave a GI50 of 6.21 µM.

test system: CAKI-1 renal; assay: DTP human tumour cell line panel, 48 h

Compared with `Cc1cc(SCC(=O)c2ccccc2)nc2ccccc12`, `Cc1cc(C)c(C(=O)CC(=O)c2cccnc2)c(C)c1` is lower in TGI: > 100 µM for the first, 5.52 µM for the second.

`CC1CN1CC(O)C(O)CN1CC1C` (stereo not given) and `CCN(CC)c1ccc(C(=N)c2ccc(N(CC)CC)cc2)cc1` are within 1.5-fold of each other in TGI: 4.54 µM for the first, 5.85 µM for the second.

Compared with `Cc1cc(C)c(C(=O)CC(=O)c2cccnc2)c(C)c1`, `CCN(CC)c1ccc(C(=N)c2ccc(N(CC)CC)cc2)cc1` is 2.3-fold lower in GI50: 1.34 µM for the first, 0.588 µM for the second.

In the case of `CC1CN1CC(O)C(O)CN1CC1C` (stereo not given), the GI50 was 0.229 µM.

test system: RXF 393 renal; assay: DTP human tumour cell line panel, 48 h

Compared with `Cc1cc(SCC(=O)c2ccccc2)nc2ccccc12`, `Cc1cc(C)c(C(=O)CC(=O)c2cccnc2)c(C)c1` is lower in TGI: > 100 µM for the first, 60.2 µM for the second.

Going from `CC1CN1CC(O)C(O)CN1CC1C` (stereo not given) to `CCN(CC)c1ccc(C(=N)c2ccc(N(CC)CC)cc2)cc1`, the TGI falls from 8.77 µM to 2.45 µM (3.6-fold).

First: Cc1cc(C)c(C(=O)CC(=O)c2cccnc2)c(C)c1
Second: CCN(CC)c1ccc(C(=N)c2ccc(N(CC)CC)cc2)cc1
The GI50 of the first is 15-fold higher: 10.7 µM for the first, 0.731 µM for the second.

Compound `CC1CN1CC(O)C(O)CN1CC1C` (stereo not given) has a GI50 of 2.04 µM.

test system: IGROV1 ovarian; assay: DTP human tumour cell line panel, 48 h

`Cc1cc(SCC(=O)c2ccccc2)nc2ccccc12` and `Cc1cc(C)c(C(=O)CC(=O)c2cccnc2)c(C)c1` cannot be ordered by TGI: > 100 µM for the first, > 100 µM for the second.

Compared with `CC1CN1CC(O)C(O)CN1CC1C` (stereo not given), `CCN(CC)c1ccc(C(=N)c2ccc(N(CC)CC)cc2)cc1` is 9.5-fold lower in TGI: 42.2 µM for the first, 4.43 µM for the second.

Compared with `Cc1cc(C)c(C(=O)CC(=O)c2cccnc2)c(C)c1`, `CCN(CC)c1ccc(C(=N)c2ccc(N(CC)CC)cc2)cc1` is 7.8-fold lower in GI50: 4.39 µM for the first, 0.565 µM for the second.

Work on `CC1CN1CC(O)C(O)CN1CC1C` (stereo not given) yielded a GI50 of 4.09 µM.

test system: A498 renal; assay: DTP human tumour cell line panel, 48 h

Compared with `Cc1cc(SCC(=O)c2ccccc2)nc2ccccc12`, `Cc1cc(C)c(C(=O)CC(=O)c2cccnc2)c(C)c1` is lower in TGI: > 100 µM for the first, 94.1 µM for the second.

First: CC1CN1CC(O)C(O)CN1CC1C (stereo not given)
Second: CCN(CC)c1ccc(C(=N)c2ccc(N(CC)CC)cc2)cc1
The TGI of the first is 7.1-fold higher: 16.8 µM for the first, 2.38 µM for the second.

Going from `Cc1cc(C)c(C(=O)CC(=O)c2cccnc2)c(C)c1` to `CCN(CC)c1ccc(C(=N)c2ccc(N(CC)CC)cc2)cc1`, the GI50 falls from 18.8 µM to 0.575 µM (33-fold).

`CC1CN1CC(O)C(O)CN1CC1C` (stereo not given) showed a GI50 of 3.61 µM.

test system: SF-539 CNS; assay: DTP human tumour cell line panel, 48 h

First: Cc1cc(SCC(=O)c2ccccc2)nc2ccccc12
Second: Cc1cc(C)c(C(=O)CC(=O)c2cccnc2)c(C)c1
The TGI of the first is higher: > 100 µM for the first, 45.7 µM for the second.

Compared with `CC1CN1CC(O)C(O)CN1CC1C` (stereo not given), `CCN(CC)c1ccc(C(=N)c2ccc(N(CC)CC)cc2)cc1` is 19-fold lower in TGI: 45.4 µM for the first, 2.43 µM for the second.

Compared with `Cc1cc(C)c(C(=O)CC(=O)c2cccnc2)c(C)c1`, `CCN(CC)c1ccc(C(=N)c2ccc(N(CC)CC)cc2)cc1` is 8.3-fold lower in GI50: 6.93 µM for the first, 0.83 µM for the second.

With `CC1CN1CC(O)C(O)CN1CC1C` (stereo not given) the GI50 was 1.84 µM.

test system: OVCAR-4 ovarian; assay: DTP human tumour cell line panel, 48 h

`Cc1cc(SCC(=O)c2ccccc2)nc2ccccc12` and `Cc1cc(C)c(C(=O)CC(=O)c2cccnc2)c(C)c1` cannot be ordered by TGI: > 100 µM for the first, > 100 µM for the second.

`Cc1cc(C)c(C(=O)CC(=O)c2cccnc2)c(C)c1` was tested, and the GI50 was 8.59 µM.

Reference: PubChem BioAssay (NCI)
